Experimental data taken from the supplement of paper PMC10307832.

Key:
Assay in all cases: relative viability (nuclei count vs DMSO), 5 days (fraction); higher = more cells survive
[1] = tested on: SK-LU-1
Procedure, shortened: (§1)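 Lung cancer cell lines were pin-tool dosed in 1536-well plates on the day after seeding, with either a lone drug or a fixed anchor-drug dose plus five library-drug doses (not always all listed) in √10 steps. Nuclei were counted on 4× images after 5 days. Relative viability is the ratio of treated-well to vehicle-well nuclei counts, with each value a median of duplicate plates.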

[2] = tested on: NCI-H322M
Procedure, shortened: as §1

[3] = tested on: NCI-H2347
Procedure, shortened: as §1

[4] = tested on: HOP-62
Procedure, shortened: as §1

[5] = tested on: NCI-H1993
Procedure, shortened: as §1

[6] = tested on: BEN
Procedure, shortened: as §1

[7] = tested on: NCI-H2126
Procedure, shortened: as §1

[8] = tested on: NCI-H358
Procedure, shortened: as §1

[9] = tested on: LCLC-97TM1
Procedure, shortened: as §1

[10] = tested on: NCI-H2342
Procedure, shortened: as §1

[11] = tested on: H3255
Procedure, shortened: as §1

[12] = tested on: NCI-H1650
Procedure, shortened: as §1

[13] = tested on: NCI-H1563
Procedure, shortened: as §1

## COc1cc(N2CCC(C(N)=O)CC2)ccc1Nc1nc(N)c(Cl)c(Nc2ccccc2S(=O)(=O)C(C)C)n1 [HG-5-88-01] + COc1cc2c(Oc3ccc(NC(=O)C4(C(=O)Nc5ccc(F)cc5)CC4)cc3F)ccnc2cc1OCCCN1CCOCC1 [Foretinib] (partner 0.25 µM)
[1]; first compound 1.265 µM
  relative viability: 0.738
[1]; first compound 4 µM
  relative viability: 0.618
[2]; first compound 0.04 µM
  relative viability: 0.927
[2]; first compound 0.1265 µM
  relative viability: 0.782
[2]; first compound 0.4 µM
  relative viability: 0.635
[2]; first compound 4 µM
  relative viability: 0.759
[3]; first compound 0.04 µM
  relative viability: 0.845
[3]; first compound 0.1265 µM
  relative viability: 0.974
[3]; first compound 0.4 µM
  relative viability: 1.03
[3]; first compound 1.265 µM
  relative viability: 0.65
[3]; first compound 4 µM
  relative viability: 0.452
[4]; first compound 0.04 µM
  relative viability: 1.15
[4]; first compound 0.1265 µM
  relative viability: 1.12
[4]; first compound 0.4 µM
  relative viability: 1.01
[4]; first compound 1.265 µM
  relative viability: 1.13
[4]; first compound 4 µM
  relative viability: 1.3
[5]; first compound 0.04 µM
  relative viability: 0.739
[5]; first compound 0.1265 µM
  relative viability: 0.727
[5]; first compound 0.4 µM
  relative viability: 0.725
[5]; first compound 1.265 µM
  relative viability: 0.586
[5]; first compound 4 µM
  relative viability: 0.623
[6]; first compound 0.04 µM
  relative viability: 0.399
[6]; first compound 0.1265 µM
  relative viability: 0.702
[6]; first compound 0.4 µM
  relative viability: 0.444
[6]; first compound 1.265 µM
  relative viability: 0.62
[6]; first compound 4 µM
  relative viability: 0.448
[7]; first compound 0.1265 µM
  relative viability: 1.22
[7]; first compound 0.4 µM
  relative viability: 1.05
[7]; first compound 1.265 µM
  relative viability: 0.937
[7]; first compound 4 µM
  relative viability: 1.23
[8]; first compound 0.04 µM
  relative viability: 0.676
[8]; first compound 0.1265 µM
  relative viability: 0.605
[8]; first compound 0.4 µM
  relative viability: 0.479
[8]; first compound 1.265 µM
  relative viability: 0.224
[8]; first compound 4 µM
  relative viability: 0.23
[9]; first compound 0.04 µM
  relative viability: 0.893
[9]; first compound 0.1265 µM
  relative viability: 0.972
[9]; first compound 0.4 µM
  relative viability: 0.882
[9]; first compound 1.265 µM
  relative viability: 0.864
[9]; first compound 4 µM
  relative viability: 0.326
[10]; first compound 0.04 µM
  relative viability: 1.19
[10]; first compound 0.1265 µM
  relative viability: 1.06
[10]; first compound 0.4 µM
  relative viability: 1.13
[10]; first compound 1.265 µM
  relative viability: 0.697
[10]; first compound 4 µM
  relative viability: 1.04
[11]; first compound 0.04 µM
  relative viability: 0.854
[11]; first compound 0.1265 µM
  relative viability: 0.874
[11]; first compound 0.4 µM
  relative viability: 0.856
[11]; first compound 4 µM
  relative viability: 0.649
[12]; first compound 0.04 µM
  relative viability: 1.11
[12]; first compound 0.1265 µM
  relative viability: 1.2
[12]; first compound 0.4 µM
  relative viability: 1.26
[12]; first compound 1.265 µM
  relative viability: 0.751
[12]; first compound 4 µM
  relative viability: 0.836
[13]; first compound 0.04 µM
  relative viability: 1
[13]; first compound 0.1265 µM
  relative viability: 1.01
[13]; first compound 0.4 µM
  relative viability: 0.963
[13]; first compound 1.265 µM
  relative viability: 0.866
[13]; first compound 4 µM
  relative viability: 0.833
